{"source": "paper PMC10331583", "about": "“Control of fibrosis with enhanced safety via asymmetric inhibition of prolyl‐tRNA synthetase 1” (EMBO Molecular Medicine, 2023)", "key": {"C57BL/6 mice": {"system": "C57BL/6 mice", "assay": "Bleomycin‐induced lung fibrosis, preventive model", "type": "in vivo", "details": "30 mg/kg once a day, 3 weeks", "description": "In a preventive model of bleomycin‐induced lung fibrosis, all experiments were conducted following the international guidelines on the ethical use of experimental animals and approved by the Institutional Animal Care and Use Committee of Aragen Bioscience (17‐0331‐M‐1). C57BL/6 mice (6–7‐week‐old, male, obtained from Simonsen Laboratories) were randomized into groups (n = 10 for each group) such that mean body weights were similar for the different groups. Oral administration of the compounds (vehicle, DWN12088, and pirfenidone) was started a day before oropharyngeal administration of 70 μl bleomycin (2 units/kg). DWN12088 (3, 10, 30 mg/kg) was treated once a day while 100 mg/kg pirfenidone was treated twice a day (200 mg/kg/day) for 3 weeks, and then the outcome was analyzed."}, "[1]": {"set-up": "method as in earlier work", "details": "healthy adults; ref ANZCTR ACTRN12619001239156; ClinicalTrials.gov NCT04767815, NCT04888715, NCT04888728; cited from earlier work"}, "[2]": {"assay": "Cytotoxicity assay in cells stably expressing PARS1 mutant", "details": "human; for activity at 72 h, 3 µM: 3000 nM; for activity at 72 h, 30 µM: 30000 nM; for activity at 72 h, 100 µM: 100000 nM"}, "[3]": {"system": "WI‐26 VA4 cells stably expressing PARS1 FA/EA/RL mutant", "assay": "Cytotoxicity assay in cells stably expressing PARS1 mutant", "details": "WI-26 VA4 Flag-PARS1 FA/EA/RL"}, "[4]": {"details": "Cytotoxicity, % of control (single replicates, Experiment #1-#4), WI-26 VA4 Flag-PARS1 FA/EA/RL"}, "[5]": {"details": "Cytotoxicity, % of control, average, WI-26 VA4 Flag-PARS1 FA/EA/RL"}}, "note": "Several values for one entry are separate records, joined by “and”; a condition that tells them apart may be missing. Identical values can stand only once.", "data": [{"molecule": "O[C@H]1CCCN[C@@H]1CCCn1cnc2c(Cl)c(Cl)ccc21", "note": "[DWN12088]", "values": [{"measurement": "fibrotic properties (modified Ashcroft score, lung weight, collagen content in BALF)", "setting": "C57BL/6 mice", "value": "alleviated fibrotic properties"}, {"measurement": "safety in phase 1 studies", "setting": "[1]", "value": "validated its safety in phase 1 studies"}, {"measurement": "CC50 at 72 h", "setting": "[2]", "value": 11.8, "unit": "µM"}, {"measurement": "IC50 at 72 h", "setting": "[2]", "value": 11.8, "unit": "µM"}, {"measurement": "activity at 72 h, 3 µM", "setting": "[2]; [4]", "value": 85.2, "unit": "%"}, {"measurement": "activity at 72 h, 30 µM", "setting": "[2]; [4]", "value": 25.3, "unit": "%"}, {"measurement": "activity at 72 h, 100 µM", "setting": "[2]; [4]", "value": 22.8, "unit": "%"}, {"measurement": "activity at 72 h, 0.01 µM", "setting": "[2]; Cytotoxicity, % of control, average, WI-26 VA4 Flag-PARS1 FA/EA/RL, 10 nM", "value": 110, "unit": "%"}, {"measurement": "activity at 72 h, 0.03 µM", "setting": "[2]; Cytotoxicity, % of control, average, WI-26 VA4 Flag-PARS1 FA/EA/RL, 30 nM", "value": 107, "unit": "%"}, {"measurement": "activity at 72 h, 0.1 µM", "setting": "[2]; Cytotoxicity, % of control, average, WI-26 VA4 Flag-PARS1 FA/EA/RL, 100 nM", "value": 110, "unit": "%"}, {"measurement": "activity at 72 h, 0.3 µM", "setting": "[2]; Cytotoxicity, % of control, average, WI-26 VA4 Flag-PARS1 FA/EA/RL, 300 nM", "value": 107, "unit": "%"}, {"measurement": "activity at 72 h, 1 µM", "setting": "[2]; Cytotoxicity, % of control, average, WI-26 VA4 Flag-PARS1 FA/EA/RL, 1000 nM", "value": 111, "unit": "%"}, {"measurement": "activity at 72 h, 3 µM", "setting": "[2]; [5]", "value": 81.7, "unit": "%"}, {"measurement": "activity at 72 h, 10 µM", "setting": "[2]; Cytotoxicity, % of control, average, WI-26 VA4 Flag-PARS1 FA/EA/RL, 10000 nM", "value": 68.8, "unit": "%"}, {"measurement": "activity at 72 h, 30 µM", "setting": "[2]; [5]", "value": 19.5, "unit": "%"}, {"measurement": "activity at 72 h, 100 µM", "setting": "[2]; [5]", "value": 20.1, "unit": "%"}, {"measurement": "activity at 72 h, 300 µM", "setting": "[2]; Cytotoxicity, % of control, average, WI-26 VA4 Flag-PARS1 FA/EA/RL, 300000 nM", "value": 1.1, "unit": "%"}, {"measurement": "activity at 72 h, 1000 µM", "setting": "[2]; Cytotoxicity, % of control, average, WI-26 VA4 Flag-PARS1 FA/EA/RL, 1000000 nM", "value": 0, "unit": "%"}, {"measurement": "Cytotoxicity, % of control (single replicates, Experiment #1-#4)", "setting": "[3]; 10 nM, 0.01 µM", "value": "127.65 % of control and 116.09 % of control and 111.66 % of control and 110.83 % of control and 101.75 % of control and 99.44 % of control and 110.49 % of control and 101.49 % of control"}, {"measurement": "Cytotoxicity, % of control (single replicates, Experiment #1-#4)", "setting": "[3]; 30 nM, 0.03 µM", "value": "126.96 % of control and 104.11 % of control and 114.08 % of control and 105.16 % of control and 106.38 % of control and 115.03 % of control and 93.72 % of control and 92.87 % of control"}, {"measurement": "Cytotoxicity, % of control (single replicates, Experiment #1-#4)", "setting": "[3]; 100 nM, 0.1 µM", "value": "127.60 % of control and 108.47 % of control and 113.70 % of control and 109.71 % of control and 111.06 % of control and 113.53 % of control and 98.60 % of control and 94.80 % of control"}, {"measurement": "Cytotoxicity, % of control (single replicates, Experiment #1-#4)", "setting": "[3]; 300 nM, 0.3 µM", "value": "132.76 % of control and 113.23 % of control and 105.15 % of control and 116.43 % of control and 104.37 % of control and 100.43 % of control and 94.90 % of control and 90.64 % of control"}, {"measurement": "Cytotoxicity, % of control (single replicates, Experiment #1-#4)", "setting": "[3]; 1000 nM, 1 µM", "value": "112.40 % of control and 100.20 % of control and 107.27 % of control and 121.00 % of control and 132.94 % of control and 130.17 % of control and 95.86 % of control and 86.64 % of control"}, {"measurement": "Cytotoxicity, % of control (single replicates, Experiment #1-#4)", "setting": "[3]; 3000 nM, 3 µM", "value": "71.51 % of control and 74.54 % of control and 81.32 % of control and 80.03 % of control and 89.57 % of control and 88.20 % of control and 83.52 % of control"}, {"measurement": "Cytotoxicity, % of control (single replicates, Experiment #1-#4)", "setting": "[3]; 10000 nM, 10 µM", "value": "63.68 % of control and 53.80 % of control and 76.80 % of control and 69.72 % of control and 64.84 % of control and 73.82 % of control and 81.37 % of control and 66.19 % of control"}, {"measurement": "Cytotoxicity, % of control (single replicates, Experiment #1-#4)", "setting": "[3]; 30000 nM, 30 µM", "value": "25.76 % of control and 18.61 % of control and 17.42 % of control and 17.01 % of control and 19.68 % of control and 18.20 % of control and 14.25 % of control"}, {"measurement": "Cytotoxicity, % of control (single replicates, Experiment #1-#4)", "setting": "[3]; 100000 nM, 100 µM", "value": "21.16 % of control and 22.59 % of control and 20.38 % of control and 17.48 % of control and 18.26 % of control and 18.73 % of control and 19.25 % of control"}, {"measurement": "Cytotoxicity, % of control (single replicates, Experiment #1-#4)", "setting": "[3]; 300000 nM, 300 µM", "value": "1.23 % of control and 1.09 % of control and 1.22 % of control and 0.52 % of control and 1.28 % of control and 1.77 % of control and 1.38 % of control and 0.29 % of control"}, {"measurement": "Cytotoxicity, % of control (single replicates, Experiment #1-#4)", "setting": "[3]; 1000000 nM, 1000 µM", "value": "0.10 % of control and -0.10 % of control and 0.29 % of control and -0.29 % of control and 0.16 % of control and -0.16 % of control and 0.22 % of control and -0.22 % of control"}, {"measurement": "Cytotoxicity HillSlope (best-fit value)", "setting": "[3]; log(inhibitor) vs. response, variable slope (four parameters)", "value": -1.118}, {"measurement": "Cytotoxicity LogIC50 (best-fit value)", "setting": "[3]; log(inhibitor) vs. response, variable slope (four parameters), concentration in nM", "value": 4.071}]}]}
